Results taken from the supplement of paper PMC13380429.

Assays:
Conditions in all cases: 72 h
Calu-3 [1] = assay: relative viability EC50 (midpoint between 100% and the lowest measured viability); higher = less toxic
Vero E6 [2] = assay: as above
HepG2 [3] = assay: as above
U2OS [4] = assay: as above
Caco-2 [5] = assay: as above
Calu-3 [6] = assay: drug sensitivity score (DSS) for viability; higher = more toxic; extreme values may be limits of the assay
Vero E6 [7] = assay: as above
HepG2 [8] = assay: as above
U2OS [9] = assay: as above
Caco-2 [10] = assay: as above
Calu-3 [11] = assay: cell viability relative to DMSO; higher = less toxic
Vero E6 [12] = assay: as above
HepG2 [13] = assay: as above
U2OS [14] = assay: as above
Caco-2 [15] = assay: as above

SMILES | relative viability EC50 (Calu-3 [1]) | relative viability EC50 (Vero E6 [2]) | relative viability EC50 (HepG2 [3]) | relative viability EC50 (U2OS [4]) | relative viability EC50 (Caco-2 [5]) | drug sensitivity score (Calu-3 [6]) | drug sensitivity score (Vero E6 [7]) | drug sensitivity score (HepG2 [8]) | drug sensitivity score (U2OS [9]) | drug sensitivity score (Caco-2 [10]) | cell viability (Calu-3 [11]; 1 nM) | cell viability (Calu-3 [11]; 10 nM) | cell viability (Calu-3 [11]; 100 nM) | cell viability (Calu-3 [11]; 1000 nM) | cell viability (Calu-3 [11]; 10000 nM) | cell viability (Vero E6 [12]; 1 nM) | cell viability (Vero E6 [12]; 10 nM) | cell viability (Vero E6 [12]; 100 nM) | cell viability (Vero E6 [12]; 1000 nM) | cell viability (Vero E6 [12]; 10000 nM) | cell viability (HepG2 [13]; 1 nM) | cell viability (HepG2 [13]; 10 nM) | cell viability (HepG2 [13]; 100 nM) | cell viability (HepG2 [13]; 1000 nM) | cell viability (HepG2 [13]; 10000 nM) | cell viability (U2OS [14]; 1 nM) | cell viability (U2OS [14]; 10 nM) | cell viability (U2OS [14]; 100 nM) | cell viability (U2OS [14]; 1000 nM) | cell viability (U2OS [14]; 10000 nM) | cell viability (Caco-2 [15]; 1 nM) | cell viability (Caco-2 [15]; 10 nM) | cell viability (Caco-2 [15]; 100 nM) | cell viability (Caco-2 [15]; 1000 nM) | cell viability (Caco-2 [15]; 10000 nM)
CN(C)CCOC(c1ccccc1)c1ccccc1.Cn1c(=O)c2[nH]c(Cl)nc2n(C)c1=O [dimenhydrinate] | > 10 µM | > 10 µM | > 10 µM | > 10 µM | > 10 µM | 0 | 0 | 0 | 0 | 0 | 103% | 94.4% | 97.2% | 99.2% | 98% | 93.8% | 99.7% | 96.2% | 100% | 103% | 95.7% | 103% | 110% | 107% | 106% | 102% | 96.5% | 98% | 102% | 106% | 96.3% | 88.1% | 88.1% | 104% | 99.5%
O=C(O)CCCc1ccccc1 [phenylbutyrate] | > 10 µM | > 10 µM | > 10 µM | > 10 µM | > 10 µM | 0 | 0 | 0 | 0 | 0 | 94.6% | 112% | 113% | 109% | 105% | 106% | 95.6% | 104% | 93.2% | 106% | 111% | 81.8% | 105% | 104% | 96.1% | 99.9% | 105% | 104% | 103% | 103% | 79.8% | 100% | 90.4% | 97% | 107%
NCCCC(O)(P(=O)(O)O)P(=O)(O)O [alendronate] | > 10 µM | > 10 µM | > 10 µM | > 10 µM | > 10 µM | 0 | 0 | 0.1 | 0 | 0 | 85.5% | 103% | 92.3% | 107% | 98.5% | 102% | 98.5% | 106% | 103% | 106% | 101% | 91.7% | 107% | 95.4% | 88.8% | 96.6% | 103% | 94.8% | 104% | 97.7% | 97.4% | 102% | 96.9% | 99.8% | 94.3%
CC1=C(C(=O)O)N2C(=O)[C@@H](NC(=O)[C@H](N)c3ccccc3)[C@H]2SC1 [cephalexin] | > 10 µM | > 10 µM | > 10 µM | > 10 µM | > 10 µM | 0 | 0 | 0 | 0 | 0 | 94.8% | 101% | 88.4% | 112% | 94.9% | 95.8% | 100% | 96.7% | 101% | 103% | 101% | 97.1% | 92.7% | 95.2% | 105% | 99.2% | 91.5% | 99.1% | 94.7% | 104% | 95.2% | 94.6% | 100% | 98% | 115%
CC1(C)OC[C@H](NC(=O)Nc2ccc(Br)cc2Br)[C@H](c2ccccc2)O1 | > 10 µM | > 10 µM | > 10 µM | > 10 µM | > 10 µM | 0 | 0 | 0 | 0 | 0.1 | 99.1% | 89.6% | 111% | 103% | 92.8% | 102% | 101% | 101% | 93.9% | 95.7% | 95.4% | 89.8% | 93.6% | 91.1% | 95.5% | 93.3% | 98% | 96.6% | 98.5% | 89.6% | 94.5% | 98.8% | 95.3% | 103% | 85.8%
CC(CCc1ccc(O)cc1)NCCc1ccc(O)c(O)c1 (stereo not given) [dobutamine] | > 10 µM | > 10 µM | > 10 µM | > 10 µM | > 10 µM | 0 | 0 | 0 | 0 | 0 | 90.2% | 79.6% | 92.8% | 96.9% | 105% | 106% | 103% | 97.1% | 98.5% | 103% | 106% | 110% | 93.1% | 96.7% | 93.3% | 101% | 96.6% | 97.7% | 102% | 98% | 106% | 99.2% | 99.3% | 95% | 104%
CCOc1ccc(S(=O)(=O)O)c2cccnc12 [actinoquinol] | > 10 µM | > 10 µM | > 10 µM | > 10 µM | > 10 µM | 0 | 0 | 0 | 0 | 0 | 99.4% | 99.4% | 99% | 99.8% | 99.1% | 95.4% | 90.2% | 92.5% | 95.1% | 101% | 91% | 101% | 95.1% | 98.5% | 110% | 96.3% | 98.1% | 94% | 94.6% | 95.5% | 91.1% | 78% | 87.3% | 102% | 95.1%
Cc1cccc(-c2nn3c(c2-c2ccnc4ccc(C(N)=O)cc24)CCC3)n1 | > 10 µM | > 10 µM | > 10 µM | > 10 µM | > 10 µM | 0 | 0 | 0 | 0 | 0 | 95.4% | 108% | 91.4% | 105% | 113% | 98.9% | 99% | 101% | 99.9% | 113% | 103% | 96.5% | 106% | 99.4% | 106% | 98.3% | 99.5% | 95.8% | 96% | 92.6% | 96.9% | 87.8% | 93.1% | 100% | 109%
O=C(O)CCC/C=C\C[C@@H]1[C@@H](/C=C/[C@@H](O)COc2cccc(Cl)c2)[C@H](O)C[C@@H]1O (racemic) [cloprostenol-(+/-)] | > 10 µM | > 10 µM | > 10 µM | > 10 µM | > 10 µM | 0 | 0 | 0 | 0 | 0 | 110% | 108% | 106% | 95.5% | 100% | 99.1% | 103% | 105% | 102% | 102% | 98.2% | 106% | 104% | 103% | 104% | 103% | 106% | 99.9% | 102% | 97.6% | 100% | 104% | 96.1% | 97.7% | 92.3%
COc1cc(Oc2ccnc3cc(OC)c(OC)cc23)ccc1NC(=O)NC(C)c1nccs1 (stereo not given) | > 10 µM | > 10 µM | > 10 µM | > 10 µM | > 10 µM | 0 | 0 | 0 | 0 | 0 | 94.5% | 98.7% | 91.6% | 113% | 97.3% | 100% | 101% | 91% | 96.2% | 95.6% | 93.1% | 104% | 91.7% | 98.8% | 87.9% | 95.1% | 98.8% | 93.8% | 95.6% | 90.1% | 100% | 104% | 87.7% | 97.2% | 88.2%
Cc1[nH]cnc1CN1CCc2c(c3ccccc3n2C)C1=O [alosetron] | > 10 µM | > 10 µM | > 10 µM | > 10 µM | > 10 µM | 0 | 0 | 3.7 | 0 | 0 | 102% | 93.5% | 102% | 91.7% | 106% | 99.3% | 94.5% | 93.1% | 96.5% | 97% | 111% | 93.7% | 83.9% | 89.1% | 94.4% | 98.2% | 95.6% | 104% | 96.9% | 99.5% | 101% | 98.7% | 95.6% | 104% | 109%
C=C(C)[C@@H]1CCC(C)=C[C@H]1c1c(OC)cc(C)cc1OC [O-1918] | > 10 µM | > 10 µM | > 10 µM | > 10 µM | > 10 µM | 0 | 0 | 0 | 0 | 0 | 102% | 97.5% | 96% | 91.6% | 95.9% | 106% | 102% | 106% | 99.5% | 102% | 101% | 94.9% | 104% | 95.3% | 95.9% | 102% | 106% | 97% | 101% | 99% | 96.4% | 105% | 100% | 98.5% | 105%
CNC(=O)c1ccc2c(c1)CCO[C@H]2CCN1CCN(c2ccc(C(N)=O)cc2)CC1 | > 10 µM | > 10 µM | > 10 µM | > 10 µM | > 10 µM | 0 | 0 | 0 | 0 | 0 | 99.7% | 81.1% | 95.2% | 107% | 100% | 105% | 102% | 104% | 99.1% | 107% | 103% | 104% | 95.2% | 98.9% | 99.6% | 99.5% | 106% | 100% | 103% | 101% | 94.9% | 105% | 91.9% | 102% | 97.1%
OC[C@@H](O)[C@@H](O)[C@@H](O)CO [ribitol] | > 10 µM | > 10 µM | > 10 µM | > 10 µM | > 10 µM | 0 | 0 | 0 | 0 | 0 | 102% | 93% | 98.1% | 96.6% | 98% | 93.7% | 100% | 97.8% | 99.2% | 101% | 101% | 90.9% | 111% | 100% | 105% | 98.9% | 96.2% | 97.4% | 93% | 102% | 100% | 97% | 104% | 102% | 103%
